Values of other authors in patent US8431151B2, “Antimicrobial nanostructured hydrogel web containing silver” (Syracuse University, priority 2009, dated 2013).

How the values were obtained:
[1] = system: 16 bacterial species including Escherichia coli, Pseudomonas aeruginosa, and Staphylococcus aureus; conditions: 16 bacterial species tested
mouse bone marrow cells = conditions: 4 μg/mL silver (Ag^+)

[Ag+] [silver (Ag^+)]
silver concentration at which bacterial species are inhibited [1]: 1.25 µg/mL | detrimental effects to mouse bone marrow cells (mouse bone marrow cells): does not exhibit any obvious detrimental effects
